Assays:
FMDV serotype A (NP05) = experiment: microbe, parasite or virus in culture; type: cell-based; conditions: Foot-and-mouth disease virus; for EC50: BHK-21, read-out: Antiviral Activity EC50; for EC90: BHK-21, read-out: Antiviral Activity EC90
in vitro = conditions: hamster
[1] = test system: RD114 glycoprotein (RD114pp) of endogenous feline retrovirus; conditions: read-out: IC50 against RD114pp; cited from earlier work

SMILES | EC50 (FMDV serotype A (NP05)) [nM] | EC90 (FMDV serotype A (NP05)) [µM] | CC50 (in vitro) [µM] | IC50 [1] [nM]
NC(=O)c1ncn([C@@H]2O[C@H](CO)[C@@H](O)[C@H]2O)n1 [Ribavirin, 1-β-d-ribofuranosyl-1,2,4-triazole-3-carboxamide, reference compound] | 42890 ± 420 | 393.6 ± 2.56 | > 100 | –
CO[C@@H]1C[C@@H](C[C@H]2CC[C@H](C)[C@H]([C@@H](C)C(=O)O)O2)O[C@]2(O[C@](C)([C@H]3CC[C@@](C)([C@@H]4O[C@@H]([C@H]5O[C@@](O)(CO)[C@H](C)C[C@@H]5C)C[C@@H]4C)O3)C[C@H]2C)[C@@H]1C [NSC292567, Pandavir/Nigericin] | 420 ± 80 | 3.85 ± 0.34 | 49.9 ± 1.7 | –
CCOC(=O)/C=C/[C@H](C[C@@H]1CCNC1=O)NC(=O)[C@@H](CC(=O)[C@@H](NC(=O)c1cc(C)on1)C(C)C)Cc1ccc(F)cc1 [Rupintrivir, reference compound] | 2020 ± 300 | 12.1 ± 1.6 | > 100 | –
O=C1CCCc2cc3c(cc21)CC1(C3)Cc2cc3c(cc2C1)C(=O)CCC3 [NSC670283, 2,2′-spirobi [3,6,7,8-tetrahydro-1H-cyclopenta[g]naphthalene]-5,5′-dione] | 3380 ± 1020 | 30.45 ± 0.25 | > 100 | 3000
CC1=CC(C)(C)Nc2ccc(Cc3ccc4c(c3)C(C)=CC(C)(C)N4)cc21 [NSC217697, 6,6′-methylene bis(2,2,4-trimethyl-1,2-dihydroquinoline)] | 780 ± 100 | 9.52 ± 0.18 | > 100 | –

Reference: paper PMC9866314 (Viruses, 2022)
